Tests used:
[1] = tested on: myeloid dendritic cells; assay: Lipid accumulation in dendritic cells exposed to ovarian cancer ascites supernatants (BODIPY 493/503 staining, flow cytometry); format: cell-based, mouse
Description: FIG. 1D is flow cytometry analysis of lipid accumulation in mouse bone marrow-derived dendritic cells exposed to the indicated treatments, measured by BODIPY 493/503 staining intensity.

[2] = target: IRE1α kinase and endoribonuclease domains (Homo sapiens, UniProt O75460); conditions: cited from earlier work
[3] = target: T1, IRE1α (Homo sapiens, UniProt O75460); assay: In vitro FRET assay (XBP1 RNA probe cleavage by IRE1α); conditions: biochemical FRET assay, 2 nM IRE1α
T1 construct: purchased SignalChem
T1 sequence (O75460 19-977): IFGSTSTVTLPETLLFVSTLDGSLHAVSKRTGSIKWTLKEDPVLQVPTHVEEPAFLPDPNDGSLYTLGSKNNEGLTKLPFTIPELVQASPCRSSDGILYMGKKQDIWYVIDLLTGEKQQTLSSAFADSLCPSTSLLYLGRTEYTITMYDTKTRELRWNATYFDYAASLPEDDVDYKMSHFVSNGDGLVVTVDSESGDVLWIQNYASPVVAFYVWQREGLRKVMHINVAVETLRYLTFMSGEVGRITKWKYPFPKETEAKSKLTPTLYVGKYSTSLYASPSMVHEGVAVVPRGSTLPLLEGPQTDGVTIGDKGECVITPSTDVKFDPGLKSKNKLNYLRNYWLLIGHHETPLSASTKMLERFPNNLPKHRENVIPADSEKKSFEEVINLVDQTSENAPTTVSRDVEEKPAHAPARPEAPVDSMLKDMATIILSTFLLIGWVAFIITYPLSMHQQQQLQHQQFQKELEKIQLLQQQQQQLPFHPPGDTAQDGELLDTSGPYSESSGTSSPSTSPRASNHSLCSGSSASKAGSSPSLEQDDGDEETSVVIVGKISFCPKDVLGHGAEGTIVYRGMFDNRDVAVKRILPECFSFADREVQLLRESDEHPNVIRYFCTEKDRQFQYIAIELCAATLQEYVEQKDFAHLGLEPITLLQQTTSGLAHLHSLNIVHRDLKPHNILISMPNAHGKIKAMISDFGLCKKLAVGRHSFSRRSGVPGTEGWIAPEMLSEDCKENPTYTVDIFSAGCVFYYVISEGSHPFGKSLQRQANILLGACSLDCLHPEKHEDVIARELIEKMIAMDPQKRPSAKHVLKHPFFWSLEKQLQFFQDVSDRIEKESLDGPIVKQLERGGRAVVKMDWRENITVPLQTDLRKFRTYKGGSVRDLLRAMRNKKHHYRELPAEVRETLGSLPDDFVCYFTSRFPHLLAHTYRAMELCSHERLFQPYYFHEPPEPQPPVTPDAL
Description: In vitro FRET assay was performed to evaluate the ability of select compounds to inhibit IRE1, the results of which are summarized in the following table.
To perform the in vitro FRET assay, 1× complete assay buffer (CAB; […], 50 mM sodium citrate pH 7.15, 1 mM magnesium acetate, 0.02% Tween 20) was used to dilute SignalChem IRE1α in protein to a final concentration of 2 nM. Selected compounds were serially diluted with DMSO in a non-binding black 384-well plate for a total of 15 μl in each well. 2 μl of the serially diluted compound or DMSO control were then added to new wells containing 98 μl of 1×CAB, for a total volume of 100 μl, 10 μl of which were then transferred to wells of a new plate. 5 μl of the diluted IRE1α was then added to each well. 5 μl of a […] XBP1 RNA probe was then added to each well. Fluorescence was then read over 30 minutes in kinetic mode (485/515 nm). Two RNA probes were used, XBP1 wildtype (CAUGUCCGCAGCACAUG; SEQ ID NO: 1) which is able to be spliced by active IRE1α or XBP1 mutant (CAUGUCCCCAGCACAUG; SEQ ID NO: 2) which is unable to be spliced. Each probe contained a 5′ 6-FAM modification and a 3′ IOWA Black FQ modification. […]

IRE1α kinase and endoribonuclease domains, sequence (O75460 19-977): as above

vitamin E
pathological intracellular lipid accumulation [1]: suppressed

CC(C)n1nc(-c2ccc(NC(=O)Nc3cccc(C(F)(F)F)c3)cc2)c2c(N)ncnc21 [SRC inhibitor, 1-(4-(4-Amino-1-isopropyl-1H-pyrazolo[3,4-d]pyrimidin-3-yl)phenyl)-3-(3-(trifluoromethyl)phenyl)urea]
inhibition of IRE1α kinase and endoribonuclease domains [2]: inhibits

CN1CCN(Cc2ccc(NC(=O)Nc3cc(-c4cccn5ccnc45)n(C)n3)cc2C(F)(F)F)CC1 [Compound 5]
EC50 [3]: > 100 µM

CNS(=O)(=O)c1ccc(NC(=O)Nc2cc(-c3ccc4ccncc4c3)n(C)n2)cc1 [Compound 70, 4-(3-(5-(isoquinolin-7-yl)-1-methyl-1H-pyrazol-3-yl)ureido)-N-methylbenzenesulfonamide]
EC50 [3]: > 100 µM

O=C(Nc1cccc(C(F)(F)F)c1)Nc1ccc2oc(-c3cccnc3)nc2c1 [Compound 57, 1-(2-(pyridin-3-yl)benzo[d]oxazol-5-yl)-3-(3-(trifluoromethyl)phenyl)urea]
EC50 [3]: 5 to 50 µM

CN1CCN(Cc2ccc(NC(=O)Nc3cc(-c4ccc5ccncc5c4)n(C)n3)cc2C(F)(F)F)CC1 [Compound 24, 1-(5-(isoquinolin-7-yl)-1-methyl-1H-pyrazol-3-yl)-3-(4-((4-methylpiperazin-1-yl)methyl)-3-(trifluoromethyl)phenyl)urea]
EC50 [3]: ≤ 5 µM

CN1CCN(Cc2ccc(C(=O)Nc3cc(-c4ccc5cc(N)ncc5c4)n(C)n3)c3ccccc23)CC1 [Compound 61, N-(5-(3-aminoisoquinolin-7-yl)-1-methyl-1H-pyrazol-3-yl)-4-((4-methylpiperazin-1-yl)methyl)-1-naphthamide]
EC50 [3]: > 100 µM

CN1CCN(Cc2ccc(NC(=O)Nc3cc(-c4ccc(-c5ccc(N)nc5)cc4)[nH]n3)cc2C(F)(F)F)CC1 [Compound 55, 1-(5-(4-(6-aminopyridin-3-yl)phenyl)-1H-pyrazol-3-yl)-3-(4-((4-methylpiperazin-1-yl)methyl)-3-(trifluoromethyl)phenyl)urea]
EC50 [3]: 5 to 50 µM

CN1CCN(CCc2cccc(NC(=O)Nc3cc(-c4ccc5ccncc5c4)n(C)n3)c2)CC1 [Compound 19, 1-(5-(isoquinolin-7-yl)-1-methyl-1H-pyrazol-3-yl)-3-(3-(2-(4-methylpiperazin-1-yl)ethyl)phenyl)urea]
EC50 [3]: > 100 µM

CN1CCN(Cc2ccc(NC(=O)Nc3cc(-c4ccc5oncc5c4)n(C)n3)cc2C(F)(F)F)CC1 [Compound 3, 1-(5-(benzo[d]isoxazol-5-yl)-1-methyl-1H-pyrazol-3-yl)-3-(4-((4-methylpiperazin-1-yl)methyl)-3-(trifluoromethyl)phenyl)urea]
EC50 [3]: > 100 µM

CN1CCN(Cc2ccc(NC(=O)Nc3cc(-c4ccc5ccncc5c4)n(C)n3)cc2)CC1 [Compound 47, 1-(5-(isoquinolin-7-yl)-1-methyl-1H-pyrazol-3-yl)-3-(4-((4-methylpiperazin-1-yl)methyl)phenyl)urea]
EC50 [3]: > 100 µM

CN1CCN(Cc2ccc(NC(=O)Nc3cc(-c4ccnc5c4ccn5C)n(C)n3)cc2C(F)(F)F)CC1 [Compound 12, 1-(1-methyl-5-(1-methyl-1H-pyrrolo[2,3-b]pyridin-4-yl)-1H-pyrazol-3-yl)-3-(4-((4-methylpiperazin-1-yl)methyl)-3-(trifluoromethyl)phenyl)urea]
EC50 [3]: 5 to 50 µM

Cn1nc(Nc2c(NC3CCCC3)c(=O)c2=O)cc1-c1ccc2nc(N)ncc2c1 [Compound 76, 3-((5-(2-aminoquinazolin-6-yl)-1-methyl-1H-pyrazol-3-yl)amino)-4-(cyclopentylamino)cyclobut-3-ene-1,2-dione]
EC50 [3]: 50 to 100 µM

Cn1nc(NC(=O)c2cccc(-n3cccn3)c2)cc1-c1ccc2ccncc2c1 [Compound 20, N-(5-(isoquinolin-7-yl)-1-methyl-1H-pyrazol-3-yl)-3-(1H-pyrazol-1-yl)benzamide]
EC50 [3]: > 100 µM

CN1CCN(Cc2ccc(NC(=O)Nc3cc(-c4cnc5ccccc5c4)n(C)n3)cc2C(F)(F)F)CC1 [Compound 25, 1-(1-methyl-5-(quinolin-3-yl)-1H-pyrazol-3-yl)-3-(4-((4-methylpiperazin-1-yl)methyl)-3-(trifluoromethyl)phenyl)urea]
EC50 [3]: 5 to 50 µM
